Here are results for 2 compounds from patent US10273251B2, “Composition, cured film, near infrared ray absorption filter, solid-state imaging device, infrared sensor, and compound” (FUJIFILM Corporation, priority 2014, dated 2019).

Assay type in all cases: physicochemical
Data set [1] in a line: Light fastness of near infrared ray absorption filter (ΔEab before/after xenon lamp). Particulars: filter 1.0 μm, 7.5 mass % compound; xenon lamp 50,000 lux for 20 hours; ΔEab class. As for the experimental part:
(§1) Compositions below were mixed so as to prepare the composition. A solid content of the composition is 31 mass % and a content of the near infrared ray absorption substance with respect to the total solid content of the composition was 7.5 mass %.
(§2) Glass substrates (1737 manufactured by Corning Incorporated) were coated with respective compositions by using a spin coater such that film thicknesses after drying become 1.0 μm, and a heating treatment (prebaking) was performed for 120 seconds by using a hot plate of 100° C.
(§3) Subsequently, beta exposure was performed by 500 mJ/cm^2 by using an i-ray stepper exposure device FPA-3000i5+ (manufactured by Canon Inc.). Subsequently, puddle development was performed at 23° C. for 60 seconds by using CD-2060 (manufactured by Fujifilm Electronic Materials), a rinse treatment was performed with pure water on a glass substrate on which a beta coloration layer was formed, and spray drying was performed.
(§4) The heating treatment (post baking) was performed for 300 seconds by using a hot plate of 200° C., so as to obtain a near infrared ray absorption filter.
After the near infrared ray absorption filter was irradiated with a xenon lamp was applied by 50,000 lux for 20 hours (corresponding to 1,000,000 lux·h), an ΔEab value of a color difference before and after a light-fast test was measured. A smaller ΔEab value indicates more satisfactory light fastness.
The ΔEab value is a value obtained from a color difference equation below according to a CIE 1976 (L*, a*, b*) space color system (Handbook of Color Science, New Edition, edited by the Color Science Association of Japan, (1985), p. 266). ΔEab={(ΔL*)^2[…](Δa*)^2+(Δb*)^2}^1/2

The nature of data set [2]: Solubility of the compound to propylene glycol monomethyl ether acetate. Particulars: visually observed. The source says: Solubility of the compound to propylene glycol monomethyl ether acetate was visually observed.
A short description of data set [3]: Evaluation of maximum absorption wavelength, half-width and absorbance ratio (liquid absorption spectrum). The following applies: measuring solvent chloroform; 2.5×10^−6 mol/L; optical path length 10 mm.
Data set [4] is described as follows: Heat resistance of near infrared ray absorption filter (ΔEab before/after heating). Particulars: filter 1.0 μm, 7.5 mass % compound; 260° C. for 30 minutes on hot plate; ΔEab class. As for the experimental part: as §1, §2, §3, §4
After the near infrared ray absorption filter was heated to 260° C. for 30 minutes by a hot plate, the ΔEab value of a color difference before and after heat resistance test was measured using a color meter MCPD-1000 (manufactured by Otsuka Electronics Co., Ltd.), so as to evaluate a criterion below. A smaller ΔEab value indicates more satisfactory heat resistance.

Data set [5] can be described thus: Evaluation of maximum absorption wavelength, half-width and absorbance ratio (liquid absorption spectrum). Particulars: measuring solvent chloroform; 2.5×10^−6 mol/L; optical path length 10 mm. The protocol: —Evaluation of Maximum Absorption Wavelength, Half-Width, and Absorbance Ratio—Respective compounds were dissolved in measuring solvents (concentration: 2.5×10^−6 mol/L) described in the table below so as to measure an absorption spectrum (Optical path length: 10 mm).
Maximum absorption wavelengths (λmax) of absorption spectrums, half-widths of the maximum absorption wavelengths, and absorbance ratios (550 nm/λmax) which are values obtained by dividing absorbance at a wavelength of […] by absorbance at the maximum absorption wavelength with respect to respective compounds are presented in Table 1 below. FIG. 3 illustrates an absorption spectrum of the compound D-1 in chloroform.
This is another data set of the same source.

Molecules are shown by their SMILES.

In the case of `CCC(C)COc1cccc(-c2c3/c(=C(\C#N)c4cnc5ccccc5n4)n(B(c4ccccc4)c4ccccc4)c(-c4cccc(OCC(C)CC)c4)c3/c(=C(\C#N)c3cnc4ccccc4n3)n2B(c2ccccc2)c2ccccc2)c1` [Compound D-7], the Light fastness in data set [1] is given as 5 (ΔEab value<3). The Solubility result in data set [2] is on record as “A (Solubility 2% or greater)”. For the same compound, the “Absorbance ratio (550 nm/λmax)” value in data set [3] worked out at 0.013. For the same compound, the Heat resistance in data set [4] is on record as 5 (ΔEab value<3). In addition, in data set [5], the Half-width was 29 nm and the Maximum absorption wavelength was determined as 863 nm.

Regarding `CCCCCCCCCCCCCCCCCCOc1cccc(-c2c3/c(=C(\C#N)c4nc5ccccc5s4)n(B(c4ccccc4)c4ccccc4)c(-c4cccc(OCCCCCCCCCCCCCCCCCC)c4)c3/c(=C(\C#N)c3nc4ccccc4s3)n2B(c2ccccc2)c2ccccc2)c1` [Compound D-11], in data set [1], the Light fastness is on record as 5 (ΔEab value<3). In addition, the Solubility entry in data set [2] is “B (Solubility 0.5% or greater and less than 2%)”. In addition, the “Absorbance ratio (550 nm/λmax)” value in data set [3] is recorded as 0.009. In data set [4], the Heat resistance is on record as 5 (ΔEab value<3). In data set [5], the Half-width worked out at 30 nm and the Maximum absorption wavelength is 779 nm.
